Experimental data published in US20260199481A1, “PROTEIN DEGRADATION TARGETING CHIMERA COMPOUND, COMPOSITION THEREOF, AND USE THEREOF” (TSINGHUA UNIVERSITY, priority 2022, published 2026).
Like-named read-outs stand apart in the source and are kept apart here.

System: MCF-7 cells
Assay: In vitro anti-tumor effect, CellTiter 96 viability assay
Type: cell-based
Settings: Homo sapiens, MCF7, light or radiation study
Method: Experimental Procedure: MCF-7 cells in the logarithmic growth phase were used for the experiment. The cells were seeded at 5000 cells per well in 96-well plates and incubated for 24 hours at 37° C. The cells were treated with Example compounds A1-D3 for 3 h. Subsequently, the irradiated group was irradiated with 10-30 Gy of X-rays, and the cells were continued to be incubated until 72 h after completion of irradiation. At the end of drug treatment, 20 μL of CellTiter 96° solution was added to each well. The well plates were incubated in an incubator for 2-4 hours, and then the absorbance was measured using a plate reader. Data were analyzed with GraphPad Prism software to obtain the IC50 values of each test compound.

[1] = compound 3 h, then X-rays 10 Gy or 30 Gy, 72 h after irradiation, read-out: Irradiation with 10 Gy or 30 Gy IC50
[2] = no irradiation, 72 h incubation, read-out: Radiation-free IC50

| Structure (SMILES) | IC50 [1] [nM] | IC50 [2] [nM] |
| --- | --- | --- |
| COc1cc(COC(=O)N2C(=O)CCC(N3C(=O)c4cccc(NCCCCNC(=O)C[C@@H]5N=C(c6ccc(Cl)cc6)c6c(sc(C)c6C)-n6c(C)nnc65)c4C3=O)C2=O)cc(OC)c1 (stereo partly shown) [Compound D3] | 104 | 1960 |
| COc1cc(CC(CCCCNc2cccc3c2C(=O)N(C2CCC(=O)NC2=O)C3=O)C(=O)C[C@@H]2N=C(c3ccc(Cl)cc3)c3c(sc(C)c3C)-n3c(C)nnc32)cc(OC)c1 (stereo partly shown) [Compound B3] | 338 | 2760 |
| Cc1sc2c(c1C)C(c1ccc(Cl)cc1)=N[C@@H](CC(=O)C(CCCCNc1cccc3c1C(=O)N(C1CCC(=O)NC1=O)C3=O)Cc1c(F)c(F)c(F)c(F)c1F)c1nnc(C)n1-2 (stereo partly shown) [Compound A3] | 273 | 2540 |
| Cc1ncsc1-c1ccc([C@H](C)NC(=O)[C@@H]2C[C@@H](OC(=O)OCc3c(F)c(F)c(N=[N+]=[N-])c(F)c3F)CN2C(=O)[C@H](NC(=O)CCOCc2cn(CCOCCNC(=O)C[C@@H]3N=C(c4ccc(Cl)cc4)c4c(sc(C)c4C)-n4c(C)nnc43)nn2)C(C)(C)C)cc1 [Compound D1] | 152 | 1220 |
| Cc1sc2c(c1C)C(c1ccc(Cl)cc1)=N[C@@H](CC(=O)NCCCCNc1cccc3c1C(=O)N(C1CCC(=O)N(C(=O)OCc4c(F)c(F)c(N)c(F)c4F)C1=O)C3=O)c1nnc(C)n1-2 (stereo partly shown) [Compound C3] | 970 | 1860 |

Results, then the compound that gave them:

| IC50 [1] [nM] | IC50 [2] [nM] | Structure (SMILES) |
| --- | --- | --- |
| 103 | 1110 | COc1cc(COC(=O)O[C@@H]2C[C@@H](C(=O)N[C@@H](C)c3ccc(-c4scnc4C)cc3)N(C(=O)[C@H](NC(=O)COCCOCCOCCNC(=O)C[C@@H]3N=C(c4ccc(Cl)cc4)c4c(sc(C)c4C)-n4c(C)nnc43)C(C)(C)C)C2)cc(OC)c1 [Compound A2] |
| 107 | 984 | COc1cc(COC(=O)O[C@@H]2C[C@@H](C(=O)N[C@@H](C)c3ccc(-c4scnc4C)cc3)N(C(=O)[C@H](NC(=O)CCCCCCCCCCNC(=O)C[C@@H]3N=C(c4ccc(Cl)cc4)c4c(sc(C)c4C)-n4c(C)nnc43)C(C)(C)C)C2)cc(OC)c1 [Compound C2] |
| 127 | 1010 | COc1cc(COC(=O)O[C@@H]2C[C@@H](C(=O)N[C@@H](C)c3ccc(-c4scnc4C)cc3)N(C(=O)[C@H](NC(=O)CCOCc3cn(CCOCCNC(=O)C[C@@H]4N=C(c5ccc(Cl)cc5)c5c(sc(C)c5C)-n5c(C)nnc54)nn3)C(C)(C)C)C2)cc(OC)c1 [Compound D2] |
| 119 | 1080 | Cc1ncsc1-c1ccc([C@H](C)NC(=O)[C@@H]2C[C@@H](OC(=O)OCc3c(F)c(F)c(N=[N+]=[N-])c(F)c3F)CN2C(=O)[C@H](NC(=O)COCCCOCCNC(=O)C[C@@H]2N=C(c3ccc(Cl)cc3)c3c(sc(C)c3C)-n3c(C)nnc32)C(C)(C)C)cc1 [Compound B1] |
| 146 | 964 | Cc1ncsc1-c1ccc([C@H](C)NC(=O)[C@@H]2C[C@@H](OC(=O)OCc3c(F)c(F)c(N=[N+]=[N-])c(F)c3F)CN2C(=O)[C@H](NC(=O)CCCCCCCCCCNC(=O)C[C@@H]2N=C(c3ccc(Cl)cc3)c3c(sc(C)c3C)-n3c(C)nnc32)C(C)(C)C)cc1 [Compound C1] |
| 119 | 1060 | COc1cc(COC(=O)O[C@@H]2C[C@@H](C(=O)N[C@@H](C)c3ccc(-c4scnc4C)cc3)N(C(=O)[C@H](NC(=O)COCCCOCCNC(=O)C[C@@H]3N=C(c4ccc(Cl)cc4)c4c(sc(C)c4C)-n4c(C)nnc43)C(C)(C)C)C2)cc(OC)c1 [Compound B2] |
